Experimental data as given in patent US20070155687A1, “Methods and compositions for altering cell function” (Alltech, Inc., priority 2005, published 2007).

Key:
Assay type in all cases: in vivo
[1] = tested on: Complement component 1, q subcomponent, beta polypeptide, C1qbp; assay: Cerebral cortex gene expression: C1q beta polypeptide; settings: mouse cerebral cortex; diet 1 ppm Se, 100 days; vs selenium deficient; * = significant, p<0.01
Description: (§1) Animal Care. Male C57BL/6J mice were housed singly and started on the experimental diets described below immediately after weaning (21 days of age). The mice were maintained in the Shared Aging Rodent Facility at the William S. Middleton Memorial Veterans Administration Medical Center (Madison, Wis.). Temperature and humidity were maintained at constant levels. Room light was controlled to provide 12-hr cycles of light and dark.
(§2) Experimental diets were created by Harlan Teklad (Madison, Wis.). Selenium content of the diets was determined by Covance Inc. (Madison, Wis.). Five (5) animals were included in each of the following treatment groups: a diet deficient in selenium (SD); a diet supplemented with selenomethionine (SM, obtained from Sigma, St. Louis, Mo.) such that the final selenium content of the diet was one (1) part per million; a diet supplemented with sodium selenite (SS, Sigma) such that the final concentration of selenium in this diet was one (1) part per million; or a diet supplemented with the yeast selenium SEL-PLEX (SP, Alltech, Lexington, Ky), such that the final concentration of selenium in this diet was one (1) part per million. SEL-PLEX. […]
(§3) Tissue sample preparation and microarray analysis. […] For intestinal expression studies, the intestine was flushed twice with saline solution and small intestine was measured and divided in three equal segments. […]

[2] = tested on: Gst zeta 1 (Gstz1); assay: Brain gene expression: Gstz1; settings: mouse brain; diet 1 ppm Se, 100 days; * significant relative to Se-deficient animals
Description: as §1, §2, §3

[3] = tested on: Growth arrest and DNA-damage-inducible 45 gamma. (Gadd45g); assay: Intestinal gene expression: Gadd45g; settings: mouse intestine, diet 1 ppm Se, 100 days, vs selenium deficient, negative = down
Description: as §1
Experimental diets were created by Harlan Teklad (Madison, Wis.). Selenium content of the diets was determined by Covance Inc. (Madison, Wis.). Five (5) animals were included in each of the following treatment groups: a diet deficient in selenium (SD); a diet supplemented with selenomethionine (SM, obtained from Sigma, St. Louis, Mo.) such that the final selenium content of the diet was one (1) part per million; a diet supplemented with sodium selenite (SS, Sigma) such that the final concentration of selenium in this diet was one (1) part per million; or a diet supplemented with the yeast selenium SEL-PLEX (SP, Alltech, Lexington, Ky), such that the final concentration of selenium in this diet was one (1) part per million. SEL-PLEX. Mice were provided with water and their respective diet ad libitum for 100 days. Diets were stored at the dark at 4° C. and fresh diet was added to feeder twice weekly.
Tissue sample preparation and microarray analysis. Mice were killed at 100 days of age by cervical dislocation. For intestinal expression studies, the intestine was flushed twice with saline solution and small intestine was measured and divided in three equal segments. A 3-cm region of the middle segment of the small intestine corresponding to the jejunum (˜300 mg of tissue) was cut and rinsed again with physiological saline to completely remove contents, flash frozen in liquid nitrogen and stored at −80° C. For brain (e.g., cerebral cortex) studies, the cerebral cortex was separated from the surrounding brain tissue and was flash frozen in liquid nitrogen and stored at −80° C. […]

[4] = tested on: Glutathione Peroxidase 3; assay: Intestinal gene expression (microarray): Glutathione Peroxidase 3; settings: mouse intestine; diet 1 ppm Se, 100 days; vs selenium deficient; all p < 0.01
Description: as §1, §2, §3

[5] = tested on: Nicastrin; assay: Cerebral cortex gene expression: Nicastrin; settings: mouse cerebral cortex; diet 1 ppm Se, 100 days; * significant relative to Se-deficient animals, P < 0.01
Description: as §1, §2, §3

[6] = tested on: Gadd45b; assay: Brain gene expression: Gadd45b; settings: mouse brain; diet 1 ppm Se, 100 days; * significant relative to Se-deficient animals
Description: as §1, §2, §3

[7] = tested on: Complement component 1, q subcomponent, alpha polypeptide, C1qa; assay: Cerebral cortex gene expression: C1qa; settings: mouse cerebral cortex; diet 1 ppm Se, 100 days; vs selenium deficient; * = significant, p<0.01
Description: as §1, §2, §3

[8] = tested on: Gst pi 1 (Gstp1); assay: Brain gene expression: Gstp1; settings: mouse brain; diet 1 ppm Se, 100 days; * significant relative to Se-deficient animals
Description: as §1, §2, §3

[9] = tested on: Presenilin 1; assay: Cerebral cortex gene expression: Presenilin 1; settings: mouse cerebral cortex; diet 1 ppm Se, 100 days; * significant relative to Se-deficient animals, P < 0.01
Description: as §1, §2, §3

[10] = tested on: Glutathione Peroxidase 1; assay: Intestinal gene expression (microarray): Glutathione Peroxidase 1; settings: mouse intestine; diet 1 ppm Se, 100 days; vs selenium deficient; all p < 0.01
Description: as §1, §2, §3

[11] = tested on: Cathepsin Z; assay: Cerebral cortex gene expression: Cathepsin Z; settings: mouse cerebral cortex; diet 1 ppm Se, 100 days; * downregulation significant relative to Se-deficient mice
Description: as §1, §2, §3

[12] = tested on: Complement component 1, q subcomponent, gamma polypeptide, C1qg; assay: Cerebral cortex gene expression: C1qg; settings: mouse cerebral cortex; diet 1 ppm Se, 100 days; vs selenium deficient; * = significant, p<0.01
Description: as §1, §2, §3

[13] = tested on: Amyloid beta (A4) precursor protein-binding, family A, member 1(Apba1); assay: Cerebral cortex gene expression: Apba1; settings: mouse cerebral cortex; diet 1 ppm Se, 100 days; * significant relative to Se-deficient animals, P < 0.01
Description: as §1, §2, §3

[14] = tested on: Junb; assay: Cerebral cortex gene expression: Junb; settings: mouse brain (neocortex); diet 1 ppm Se, 100 days; * significant relative to Se-deficient animals
Description: as §1, §2, §3

[15] = tested on: Complement component 1, q subcomponent binding protein, C1qbp; assay: Cerebral cortex gene expression: C1qbp; settings: mouse cerebral cortex; diet 1 ppm Se, 100 days; vs selenium deficient; * = significant, p<0.01
Description: as §1, §2, §3

[16] = tested on: Cathepsin O; assay: Cerebral cortex gene expression: Cathepsin O; settings: mouse cerebral cortex; diet 1 ppm Se, 100 days; * downregulation significant relative to Se-deficient mice
Description: as §1, §2, §3

[17] = tested on: Gadd45g1p (Growth arrest and DNA-damage inducible 45 gamma interacting protein); assay: Brain gene expression: Gadd45g1p; settings: mouse brain; diet 1 ppm Se, 100 days; * significant relative to Se-deficient animals
Description: as §1, §2, §3

[18] = tested on: Type 1 iodothyronine deiodinase; assay: Intestinal gene expression: Type 1 iodothyronine deiodinase; settings: mouse intestine; diet 1 ppm Se, 100 days; vs selenium deficient
Description: as §1, §2, §3

[19] = tested on: Gst mu 7 (Gstm7); assay: Brain gene expression: Gstm7; settings: mouse brain; diet 1 ppm Se, 100 days; * significant relative to Se-deficient animals
Description: as §1, §2, §3

[20] = tested on: Complement component 1, r subcomponent, C1r; assay: Cerebral cortex gene expression: C1r; settings: mouse cerebral cortex; diet 1 ppm Se, 100 days; vs selenium deficient; * = significant, p<0.01
Description: as §1, §2, §3

| SMILES | FC Complement component 1, q subcomponent, beta polypeptide expression [1] [fold] | FC Gstz1 expression [2] [fold] | fold change (FC) in Glutathione Peroxidase 3 gene expression [4] [fold] | FC Nicastrin expression [5] | FC Gadd45b expression [6] | FC C1qa expression [7] [fold] | FC Gstp1 expression [8] [fold] | FC Presenilin 1 expression [9] [fold] | fold change (FC) in Glutathione Peroxidase 1 gene expression [10] [fold] | FC Cathepsin Z expression [11] | FC C1qg expression [12] [fold] | FC Apba1 expression [13] [fold] | FC Junb expression [14] [fold] | FC C1qbp expression [15] [fold] | FC Cathepsin O expression [16] [fold] | FC Gadd45g1p expression [17] [fold] | Type 1 iodothyronine deiodinase expression level, fold increase [18] [fold] | FC Gstm7 expression [19] | FC C1r expression [20] [fold] | further results |
| --- | --- | --- | --- | --- | --- | --- | --- | --- | --- | --- | --- | --- | --- | --- | --- | --- | --- | --- | --- | --- |
| C[Se]CC[C@H](N)C(=O)O [SeM, selenomethionine] | −1.15 | −1.08 | 4.6 | 1.04 fold | −1.26 fold | −1.11 | −1.04 | 1.02 | 4.9 | −1.13 fold | 1.0 | 1.08 | −1.38 | 1.12 | −1.16 | 1.02 | 2.0 | −1.05 fold | 1.04 | FC Gadd45g expression [3]: decreased expression; FC Gadd45g expression ([3]; listed as SM): −1.5 (p < 0.05) fold |
| O=[Se](O)O [Sod-sel, sodium selenite] | −1.35 | −1.3 | 3.5 | −1.67* fold | −1.39* fold | −1.18 | 1.02 | −1.11 | 4.1 | −1.30* fold | −1.07 | −1.41 | −1.59 | 1.11 | −1.18 | −1.12 | 2.8 | −1.25* fold | −1.29 | FC Gadd45g expression ([3]; listed as SS): −2.0 (p < 0.01) fold |
